Data as given in patent publication US7220743B2, “Heterocyclic CB1 receptor antagonists” (Hoffmann-La Roche Inc., priority 2005, dated 2007).

Molecular target: T1, cannabinoid CB1 receptors (Homo sapiens, UniProt P21554)
T1 construct: expressed in transfected cells; host or cells: HEK cells, transient, Semliki Forest Virus system; membrane preparation
Assay: Affinity for cannabinoid CB1 receptors, [3H]-CP-55,940 radioligand binding on HEK cell membranes
Conditions: CB1 receptor affinity, [3H]-CP-55,940, HEK membranes
Procedure: The affinity of the compounds of the invention for cannabinoid CB1 receptors was determined using membrane preparations of human embryonic kidney (HEK) cells in which the human cannabis […] receptor is transiently transfected using the Semliki Forest Virus system in conjunction with [3H]-CP-55,940 as radioligand. After incubation of a freshly prepared cell membrane preparation with the [3H]-ligand, with or without addition of compounds of the invention, separation of bound and free ligand was performed by filtration over glassfiber filters. Radioactivity on the filter was measured by liquid scintillation counting.

T1 sequence (P21554 whole entry): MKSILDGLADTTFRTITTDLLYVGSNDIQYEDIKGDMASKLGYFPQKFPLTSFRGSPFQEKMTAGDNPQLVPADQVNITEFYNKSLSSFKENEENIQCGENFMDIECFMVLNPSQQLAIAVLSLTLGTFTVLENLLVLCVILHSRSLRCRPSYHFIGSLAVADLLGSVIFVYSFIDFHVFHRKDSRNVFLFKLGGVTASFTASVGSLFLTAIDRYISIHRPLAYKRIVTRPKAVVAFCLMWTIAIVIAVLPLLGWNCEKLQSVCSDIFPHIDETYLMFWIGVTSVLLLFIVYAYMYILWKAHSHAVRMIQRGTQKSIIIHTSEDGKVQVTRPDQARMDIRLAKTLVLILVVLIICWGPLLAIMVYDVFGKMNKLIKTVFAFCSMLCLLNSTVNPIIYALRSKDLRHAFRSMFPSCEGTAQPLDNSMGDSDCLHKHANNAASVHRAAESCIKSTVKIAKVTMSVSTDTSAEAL

O=C(c1cc2c(cc1F)OC1(O2)c2ccccc2C=Cc2ccccc21)N1CCOCC1 [Example 3, 4-[(6-fluoro-spiro[1,3-benzodioxole-2,5′-[5H]dibenzo[a,d]cyclohepten]-5-yl)carbonyl]-morpholine]
IC50: 6 nM
